Experimental data as given in patent US20220213047A1, “CARBONIC ANHYDRASE INHIBITORS FOR TREATMENT OF NEISSERIA GONORRHOEAE INFECTION” (Purdue Research Foundation, priority 2021, published 2022).

Assays:
[1] = system: N. gonorrhoeae; experiment: MIC against N. gonorrhoeae clinical isolates, normal and CO2 conditions; format: cell-based; conditions: Neisseria gonorrhoeae
Procedure: (§1) These tests were performed in normal culture conditions with standard CO2 levels and in CO2 (5% in incubator) conditions.

[2] = system: N. gonorrhoeae; experiment: MIC by agar dilution on a larger panel of N. gonorrhoeae strains; format: cell-based, Neisseria gonorrhoeae; conditions: Neisseria gonorrhoeae
Procedure: as §1

[3] = strain panel of Table 9, CO2 (5% CO2 containing air)

NS(=O)(=O)c1cc(Cl)c(Cl)c(S(N)(=O)=O)c1 [Dichlorphenamide]
32 µg/mL: MIC ([2]; N. gonorrhoeae 200, Non CO2 (ambient air), read-out: MIC) | MIC ([2]; N. gonorrhoeae 212, Non CO2 (ambient air), read-out: MIC)
4 µg/mL: MIC ([1]; N. gonorrhoeae 194, Non CO2 environment) | MIC ([2]; N. gonorrhoeae 167, Non CO2 (ambient air), read-out: MIC) | MIC ([2]; N. gonorrhoeae 176, Non CO2 (ambient air), read-out: MIC) | MIC ([2]; N. gonorrhoeae 177, Non CO2 (ambient air), read-out: MIC) | MIC ([2]; N. gonorrhoeae 184, Non CO2 (ambient air), read-out: MIC) | MIC ([2]; N. gonorrhoeae 191, Non CO2 (ambient air), read-out: MIC) | MIC ([2]; N. gonorrhoeae 193, Non CO2 (ambient air), read-out: MIC) | MIC ([2]; N. gonorrhoeae 194, Non CO2 (ambient air), read-out: MIC) | MIC ([2]; N. gonorrhoeae 197, Non CO2 (ambient air), read-out: MIC) | MIC ([2]; N. gonorrhoeae 206, Non CO2 (ambient air), read-out: MIC) | MIC ([2]; N. gonorrhoeae 207, Non CO2 (ambient air), read-out: MIC) | MIC ([2]; N. gonorrhoeae 208, Non CO2 (ambient air), read-out: MIC) | MIC ([2]; N. gonorrhoeae 210, Non CO2 (ambient air), read-out: MIC) | MIC50 ([2]; strain panel of Table 9, Non CO2 (ambient air)) | MIC ([2]; strain panel of Table 9, Non CO2 (ambient air), read-out: Modal MIC)
8 µg/mL: MIC ([1]; N. gonorrhoeae 181, Non CO2 environment) | MIC ([2]; N. gonorrhoeae 166, Non CO2 (ambient air), read-out: MIC) | MIC ([2]; N. gonorrhoeae 179, Non CO2 (ambient air), read-out: MIC) | MIC ([2]; N. gonorrhoeae 180, Non CO2 (ambient air), read-out: MIC) | MIC ([2]; N. gonorrhoeae 181, Non CO2 (ambient air), read-out: MIC) | MIC ([2]; N. gonorrhoeae 185, Non CO2 (ambient air), read-out: MIC) | MIC ([2]; N. gonorrhoeae 186, Non CO2 (ambient air), read-out: MIC)
128 µg/mL: MIC ([2]; N. gonorrhoeae 177, CO2 (5% CO2 containing air), read-out: MIC) | MIC ([2]; N. gonorrhoeae 181, CO2 (5% CO2 containing air), read-out: MIC) | MIC ([2]; N. gonorrhoeae 183, CO2 (5% CO2 containing air), read-out: MIC) | MIC ([2]; N. gonorrhoeae 193, CO2 (5% CO2 containing air), read-out: MIC) | MIC ([2]; N. gonorrhoeae 194, CO2 (5% CO2 containing air), read-out: MIC)
> 64 µg/mL: MIC ([1]; N. gonorrhoeae 178, normal growth environment (with CO2)) | MIC ([1]; N. gonorrhoeae 181, normal growth environment (with CO2)) | MIC ([1]; N. gonorrhoeae 194, normal growth environment (with CO2)) | MIC ([2]; N. gonorrhoeae 211, CO2 (5% CO2 containing air), read-out: MIC)
64 µg/mL: MIC ([2]; N. gonorrhoeae 170, Non CO2 (ambient air), read-out: MIC)
2 µg/mL: MIC ([1]; N. gonorrhoeae 178, Non CO2 environment) | MIC ([2]; N. gonorrhoeae 165, Non CO2 (ambient air), read-out: MIC) | MIC ([2]; N. gonorrhoeae 173, Non CO2 (ambient air), read-out: MIC) | MIC ([2]; N. gonorrhoeae 174, Non CO2 (ambient air), read-out: MIC)
16 µg/mL: MIC ([2]; N. gonorrhoeae 175, Non CO2 (ambient air), read-out: MIC) | MIC ([2]; N. gonorrhoeae 182, Non CO2 (ambient air), read-out: MIC) | MIC ([2]; N. gonorrhoeae 202, Non CO2 (ambient air), read-out: MIC) | MIC ([2]; N. gonorrhoeae 205, Non CO2 (ambient air), read-out: MIC) | MIC ([2]; N. gonorrhoeae 213, Non CO2 (ambient air), read-out: MIC) | MIC90 ([2]; strain panel of Table 9, Non CO2 (ambient air, standard CO2 conditions))
1 µg/mL: MIC ([2]; N. gonorrhoeae 171, Non CO2 (ambient air), read-out: MIC) | MIC ([2]; N. gonorrhoeae 178, Non CO2 (ambient air), read-out: MIC) | MIC ([2]; N. gonorrhoeae 183, Non CO2 (ambient air), read-out: MIC) | MIC ([2]; N. gonorrhoeae 188, Non CO2 (ambient air), read-out: MIC) | MIC ([2]; N. gonorrhoeae 196, Non CO2 (ambient air), read-out: MIC) | MIC ([2]; N. gonorrhoeae 198, Non CO2 (ambient air), read-out: MIC) | MIC ([2]; N. gonorrhoeae 203, Non CO2 (ambient air), read-out: MIC) | MIC ([2]; N. gonorrhoeae 209, Non CO2 (ambient air), read-out: MIC) | MIC ([2]; N. gonorrhoeae 211, Non CO2 (ambient air), read-out: MIC) | MIC ([2]; N. gonorrhoeae 214, Non CO2 (ambient air), read-out: MIC)
> 128 µg/mL: MIC ([2]; N. gonorrhoeae 165, CO2 (5% CO2 containing air), read-out: MIC) | MIC ([2]; N. gonorrhoeae 166, CO2 (5% CO2 containing air), read-out: MIC) | MIC ([2]; N. gonorrhoeae 167, CO2 (5% CO2 containing air), read-out: MIC) | MIC ([2]; N. gonorrhoeae 170, CO2 (5% CO2 containing air), read-out: MIC) | MIC ([2]; N. gonorrhoeae 171, CO2 (5% CO2 containing air), read-out: MIC) | MIC ([2]; N. gonorrhoeae 173, CO2 (5% CO2 containing air), read-out: MIC) | MIC ([2]; N. gonorrhoeae 174, CO2 (5% CO2 containing air), read-out: MIC) | MIC ([2]; N. gonorrhoeae 175, CO2 (5% CO2 containing air), read-out: MIC) | MIC ([2]; N. gonorrhoeae 176, CO2 (5% CO2 containing air), read-out: MIC) | MIC ([2]; N. gonorrhoeae 178, CO2 (5% CO2 containing air), read-out: MIC) | MIC ([2]; N. gonorrhoeae 179, CO2 (5% CO2 containing air), read-out: MIC) | MIC ([2]; N. gonorrhoeae 180, CO2 (5% CO2 containing air), read-out: MIC) | MIC ([2]; N. gonorrhoeae 182, CO2 (5% CO2 containing air), read-out: MIC) | MIC ([2]; N. gonorrhoeae 184, CO2 (5% CO2 containing air), read-out: MIC) | MIC ([2]; N. gonorrhoeae 185, CO2 (5% CO2 containing air), read-out: MIC) | MIC ([2]; N. gonorrhoeae 186, CO2 (5% CO2 containing air), read-out: MIC) | MIC ([2]; N. gonorrhoeae 188, CO2 (5% CO2 containing air), read-out: MIC) | MIC ([2]; N. gonorrhoeae 191, CO2 (5% CO2 containing air), read-out: MIC) | MIC ([2]; N. gonorrhoeae 196, CO2 (5% CO2 containing air), read-out: MIC) | MIC ([2]; N. gonorrhoeae 197, CO2 (5% CO2 containing air), read-out: MIC) | MIC ([2]; N. gonorrhoeae 198, CO2 (5% CO2 containing air), read-out: MIC) | MIC ([2]; N. gonorrhoeae 200, CO2 (5% CO2 containing air), read-out: MIC) | MIC ([2]; N. gonorrhoeae 202, CO2 (5% CO2 containing air), read-out: MIC) | MIC ([2]; N. gonorrhoeae 203, CO2 (5% CO2 containing air), read-out: MIC) | MIC ([2]; N. gonorrhoeae 205, CO2 (5% CO2 containing air), read-out: MIC) | MIC ([2]; N. gonorrhoeae 206, CO2 (5% CO2 containing air), read-out: MIC) | MIC ([2]; N. gonorrhoeae 207, CO2 (5% CO2 containing air), read-out: MIC) | MIC ([2]; N. gonorrhoeae 208, CO2 (5% CO2 containing air), read-out: MIC) | MIC ([2]; N. gonorrhoeae 209, CO2 (5% CO2 containing air), read-out: MIC) | MIC ([2]; N. gonorrhoeae 210, CO2 (5% CO2 containing air), read-out: MIC) | MIC ([2]; N. gonorrhoeae 212, CO2 (5% CO2 containing air), read-out: MIC) | MIC ([2]; N. gonorrhoeae 213, CO2 (5% CO2 containing air), read-out: MIC) | MIC ([2]; N. gonorrhoeae 214, CO2 (5% CO2 containing air), read-out: MIC) | MIC50 [2, 3] | MIC90 [2, 3] | MIC ([2]; strain panel of Table 9, CO2 (5% CO2 containing air), read-out: Modal MIC)
